From ChEMBL document CHEMBL3817807, “Sequence-specific DNA binding by long hairpin pyrrole-imidazole polyamides containing an 8-amino-3,6-dioxaoctanoic acid unit” (Bioorg Med Chem, 2016)
Calls of active or inactive are those of the source.

Legend:
[1] = Binding affinity to TAGTCAGCC oligonucleotide DNA sequence (unknown origin) at 50 nM incubated for 16 hrs by PCR based Bind-n-Seq analysis
[2] = Binding affinity to ATGTCTGCC oligonucleotide DNA sequence (unknown origin) at 50 nM incubated for 16 hrs by PCR based Bind-n-Seq analysis
[3] = Binding affinity to TGGCAGACT oligonucleotide DNA sequence (unknown origin) at 50 nM incubated for 16 hrs by PCR based Bind-n-Seq analysis
[4] = Binding affinity to AGTCAGCCT oligonucleotide DNA sequence (unknown origin) at 50 nM incubated for 16 hrs by PCR based Bind-n-Seq analysis
[5] = Binding affinity to TGGCAGACA oligonucleotide DNA sequence (unknown origin) at 50 nM incubated for 16 hrs by PCR based Bind-n-Seq analysis
[6] = Binding affinity to GGTTGACAT oligonucleotide DNA sequence (unknown origin) at 50 nM incubated for 16 hrs by PCR based Bind-n-Seq analysis
[7] = Binding affinity to GGCTGACTG oligonucleotide DNA sequence (unknown origin) at 50 nM incubated for 16 hrs by PCR based Bind-n-Seq analysis
[8] = Binding affinity to TGTCAGCGA oligonucleotide DNA sequence (unknown origin) at 50 nM incubated for 16 hrs by PCR based Bind-n-Seq analysis
[9] = Binding affinity to TGTCAGCCT oligonucleotide DNA sequence (unknown origin) at 50 nM incubated for 16 hrs by PCR based Bind-n-Seq analysis
[10] = Binding affinity to GTGTCAGCC oligonucleotide DNA sequence (unknown origin) at 50 nM incubated for 16 hrs by PCR based Bind-n-Seq analysis
[11] = Binding affinity to AGGCGAAAT oligonucleotide DNA sequence (unknown origin) at 50 nM incubated for 16 hrs by PCR based Bind-n-Seq analysis
[12] = Binding affinity to TATGGCTCA oligonucleotide DNA sequence (unknown origin) at 50 nM incubated for 16 hrs by PCR based Bind-n-Seq analysis
[13] = Binding affinity to AAAGGGTAA oligonucleotide DNA sequence (unknown origin) at 50 nM incubated for 16 hrs by PCR based Bind-n-Seq analysis
[14] = Binding affinity to AAAGGCCGA oligonucleotide DNA sequence (unknown origin) at 50 nM incubated for 16 hrs by PCR based Bind-n-Seq analysis
[15] = Binding affinity to AAAGAAGGC oligonucleotide DNA sequence (unknown origin) at 50 nM incubated for 16 hrs by PCR based Bind-n-Seq analysis
[16] = Binding affinity to AGAAAGGCG oligonucleotide DNA sequence (unknown origin) at 50 nM incubated for 16 hrs by PCR based Bind-n-Seq analysis
[17] = Binding affinity to ATCGGCAAA oligonucleotide DNA sequence (unknown origin) at 50 nM incubated for 16 hrs by PCR based Bind-n-Seq analysis
[18] = Binding affinity to AAAGGAATC oligonucleotide DNA sequence (unknown origin) at 50 nM incubated for 16 hrs by PCR based Bind-n-Seq analysis
[19] = Binding affinity to CCTTTCGGC oligonucleotide DNA sequence (unknown origin) at 50 nM incubated for 16 hrs by PCR based Bind-n-Seq analysis
[20] = Binding affinity to GGGCAGAAA oligonucleotide DNA sequence (unknown origin) at 50 nM incubated for 16 hrs by PCR based Bind-n-Seq analysis

Measured: Activity

CC(=O)Nc1cn(C)c(C(=O)Nc2cn(C)c(C(=O)NCCOCCOCC(=O)Nc3cn(C)c(C(=O)Nc4cc(C(=O)Nc5cc(C(=O)NCCCC(=O)Nc6cn(C)c(C(=O)Nc7cc(C(=O)Nc8cc(C(=O)NCCC(=O)Nc9cn(C)c(C(=O)Nc%10cc(C(=O)Nc%11cc(C(=O)NCCC(=O)NCCCN(C)CCCNC(=O)CCOCCOCCOCCOCCOCCOCCOCCOCCOCCOCCOCCOCCNC(=O)CCCC[C@@H]%12SC[C@@H]%13NC(=O)N[C@@H]%13%12)n(C)c%11)n(C)c%10)n9)n(C)c8)n(C)c7)n6)n(C)c5)n(C)c4)n3)n2)n1
active: [1] | [2] | [3] | [4] | [5] | [6] | [7] | [8] | [9] | [10]

CC(=O)Nc1cn(C)c(C(=O)Nc2cn(C)c(C(=O)Nc3cc(C(=O)NCCC(=O)Nc4cn(C)c(C(=O)Nc5cc(C(=O)Nc6cc(C(=O)NCCCC(=O)Nc7cn(C)c(C(=O)Nc8cc(C(=O)NCCOCCOCC(=O)Nc9cn(C)c(C(=O)Nc%10cc(C(=O)Nc%11cc(C(=O)NCCC(=O)NCCCN(C)CCCNC(=O)CCOCCOCCOCCOCCOCCOCCOCCOCCOCCOCCOCCOCCNC(=O)CCCC[C@@H]%12SC[C@@H]%13NC(=O)N[C@@H]%13%12)n(C)c%11)n(C)c%10)n9)n(C)c8)n7)n(C)c6)n(C)c5)n4)n(C)c3)n2)n1
active: [11] | [12] | [13] | [14] | [15] | [16] | [17] | [18] | [19] | [20]
